# Results as given in patent US10913710B2, “Benzene disulfonamide for the treatment of cancer” (priority 2017, dated 2021).
# Target: PDEδ (Homo sapiens (Human), UniProt O43924)
# Assay: Fluorescence polarization competition binding assay: displacement titration of labeled Atorvastatin probe for KD
# Conditions: not given
# Description: Example D.2: Displacement Titrations of Labeled Atorvastatin-Probe for the Determination of KD Values
# Displacement Titrations of Labeled Atorvastatin-Probe for the Determination of KD Values:
# The purification was followed by size exclusion gel filtration on a Superdex 75 S26/60 column using buffer A (25 mM Tris-HCl, pH 7.5, 150 mM NaCl and 3 mM DTE).
row,Compound,Kd [nM]
1,CC(C)(C)[Si](C)(C)Oc1ccc(CNS(=O)(=O)c2ccc(S(=O)(=O)N(Cc3ccc(Cl)cc3)C3CCCC3)cc2)cc1 [Compound 15],30 to 100

# Same assay, conditions: fluorescence polarization assay; activity classes; read-out: KD
row,Compound,Kd [nM]
1,O=S(=O)(c1ccc(S(=O)(=O)N(Cc2ccccn2)C2CCCO2)cc1)N(Cc1ccccn1)C1CCCO1 (centres unmarked) [Compound 1],100 to 1000
2,"Nc1ccc(Br)c(CN(CC2CCNCC2)S(=O)(=O)c2ccc(S(=O)(=O)N(Cc3ccc(Cl)cc3)C3CCCC3)cc2)c1 [Compound 2, N1-(5-amino-2-bromobenzyl)-N4-(4-chlorobenzyl)-N4-cyclopentyl-N1-(piperidin-4-ylmethyl)benzene-1,4-disulfonamide]",100 to 1000
3,CC(C)(C)OC(=O)N1CCC(CN(Cc2ccccc2)S(=O)(=O)c2ccc(S(=O)(=O)NC3CCCC3)cc2)CC1 [Compound 3],> 1000
4,"CC(C)(C)OC(=O)N1CCC(CN(Cc2ccccc2)S(=O)(=O)c2ccc(S(=O)(=O)N(Cc3cc(Br)cc(Br)c3)C3CCCC3)cc2)CC1 [Compound 4, tert-butyl 4-(((N-benzyl-4-(N-cyclopentyl-N-(3,5-dibromobenzyl)sulfamoyl)phenyl)sulfonamido)methyl)piperidine-1-carboxylate]",100 to 1000
5,"CNc1ncc(Br)c(CN(CC2CCCCC2)S(=O)(=O)c2ccc(S(=O)(=O)N(Cc3ccc(Cl)cc3)C3CCCC3)cc2)n1 [Compound 5, N1-((5-bromo-2-(methylamino)pyrimidin-4-yl)methyl)-N4-(4-chlorobenzyl)-N1-(cyclohexylmethyl)-N4-cyclopentylbenzene-1,4-disulfonamide]",30 to 100
6,"CN1CCC(CN(Cc2ccccc2)S(=O)(=O)c2ccc(S(=O)(=O)N(Cc3ccc(Cl)cc3)C3CCCC3)cc2)CC1 [Compound 6, N1-benzyl-N4-(4-chlorobenzyl)-N4-cyclopentyl-N1-((1-methylpiperidin-4-yl)methyl)benzene-1,4-disulfonamide]",1 to 30
7,O=S(=O)(NCC1CCCCC1)c1ccc(S(=O)(=O)N(Cc2ccc(Cl)cc2)C2CCCC2)cc1 [Compound 8],30 to 100
8,"O=S(=O)(c1ccc(S(=O)(=O)N(Cc2ccc(Cl)cc2)C2CCCC2)cc1)N(Cc1ccccc1)CC1CCCCC1 [Compound 9, N1-benzyl-N4-(4-chlorobenzyl)-N1-(cyclohexylmethyl)-N4-cyclopentylbenzene-1,4-disulfonamide]",1 to 30
9,"O=S(=O)(c1ccc(S(=O)(=O)N(Cc2ccc(Cl)cc2)C2CCCC2)cc1)N(CCN1CCNCC1)Cc1ccccc1 [Compound 10, N1-benzyl-N4-(4-chlorobenzyl)-N4-cyclopentyl-N1-(2-(piperazin-1-yl)ethyl)benzene-1,4-disulfonamide]",1 to 30
10,"O=S(=O)(c1ccc(S(=O)(=O)N(Cc2ccc(Cl)cc2)C2CCCC2)cc1)N(Cc1cnccn1)CC1CCNCC1 [Compound 11, N1-(4-chlorobenzyl)-N1-cyclopentyl-N4-(piperidin-4-ylmethyl)-N4-(pyrazin-2-ylmethyl)benzene-1,4-disulfonamide]",1 to 30
11,"O=S(=O)(c1ccc(S(=O)(=O)N(Cc2cnc(Cl)cn2)C2CCCC2)cc1)N(Cc1ccccc1)CC1CCNCC1 [Compound 12, N1-benzyl-N4-((5-chloropyrazin-2-yl)methyl)-N4-cyclopentyl-N1-(piperidin-4-ylmethyl)benzene-1,4-disulfonamide]",1 to 30
12,O=S(=O)(NCc1ccccc1)c1ccc(S(=O)(=O)N(Cc2ccc(Cl)cc2)C2CCCC2)cc1 [Compound 13],30 to 100
13,O=S(=O)(NCc1ccc(O)cc1)c1ccc(S(=O)(=O)N(Cc2ccc(Cl)cc2)C2CCCC2)cc1 [Compound 14],30 to 100
14,"O=S(=O)(c1ccc(S(=O)(=O)N(Cc2cccc(Br)c2)C2CCCC2)cc1)N(Cc1ccccc1)CC1CCNCC1 [Compound 17, N1-benzyl-N4-(3-bromobenzyl)-N4-cyclopentyl-N1-(piperidin-4-ylmethyl)benzene-1,4-disulfonamide]",30 to 100
15,"O=S(=O)(c1ccc(S(=O)(=O)N(Cc2ccccc2)CC2CCNCC2)cc1)N(Cc1ccccc1)CC1CCNCC1 [Compound 18, N1,N4-dibenzyl-N1,N4-bis(piperidin-4-ylmethyl)benzene-1,4-disulfonamide]",100 to 1000
16,"CNc1nccc(CN(CC2CCCCC2)S(=O)(=O)c2ccc(S(=O)(=O)N(Cc3ccc(Cl)cc3)C3CCCC3)cc2)n1 [Compound 20, N1-(4-chlorobenzyl)-N4-(cyclohexylmethyl)-N1-cyclopentyl-N4-((2-(methylamino)pyrimidin-4-yl)methyl)benzene-1,4-disulfonamide]",30 to 100
17,"COC(=O)c1ccc(CN(CC2CCNCC2)S(=O)(=O)c2ccc(S(=O)(=O)N(Cc3ccc(Cl)cc3)C3CCCC3)cc2)cc1N [Compound 23, methyl 2-amino-4-(((4-(N-(4-chlorobenzyl)-N-cyclopentylsulfamoyl)-N-(piperidin-4-ylmethyl)phenyl)sulfonamido)methyl)benzoate]",1 to 30
18,"CC(C)(C)c1cc(Br)cc(CN(C2CCCC2)S(=O)(=O)c2ccc(S(=O)(=O)N(Cc3ccccc3)CC3CCNCC3)cc2)c1 [Compound 24, N1-benzyl-N4-(3-bromo-5-(tert-butyl)benzyl)-N4-cyclopentyl-N1-(piperidin-4-ylmethyl)benzene-1,4-disulfonamide]",30 to 100
19,"O=S(=O)(c1ccc(S(=O)(=O)N(Cc2cc(Br)cc(C(F)(F)F)c2)C2CCCC2)cc1)N(Cc1ccccc1)CC1CCNCC1 [Compound 25, N1-benzyl-N4-(3-bromo-5-(trifluoromethyl)benzyl)-N4-cyclopentyl-N1-(piperidin-4-ylmethyl)benzene-1,4-disulfonamide]",100 to 1000
20,"O=S(=O)(c1ccc(S(=O)(=O)N(Cc2ccc(Cl)cc2)C2CCCC2)cc1)N(Cc1ccccc1)CC1CCCNC1 (centres unmarked) [Compound 26, N1-benzyl-N4-(4-chlorobenzyl)-N4-cyclopentyl-N1-(piperidin-3-ylmethyl)benzene-1,4-disulfonamide]",1 to 30
21,"O=S(=O)(c1ccc(S(=O)(=O)N(Cc2ccc(Cl)cc2)C2CCCC2)cc1)N(Cc1cncnc1)CC1CCNCC1 [Compound 27, N1-(4-chlorobenzyl)-N1-cyclopentyl-N4-(piperidin-4-ylmethyl)-N4-(pyrimidin-5-ylmethyl)benzene-1,4-disulfonamide]",1 to 30
22,CC(C)(C)[Si](C)(C)OCCN(CC1CCCCC1)S(=O)(=O)c1ccc(S(=O)(=O)N(Cc2ccc(Cl)cc2)C2CCCC2)cc1 [Compound 28],100 to 1000
23,CC(C)(C)[Si](C)(C)OCCCN(CC1CCCCC1)S(=O)(=O)c1ccc(S(=O)(=O)N(Cc2ccc(Cl)cc2)C2CCCC2)cc1 [Compound 29],100 to 1000
24,CC(C)(C)[Si](C)(C)OCCCCN(CC1CCCCC1)S(=O)(=O)c1ccc(S(=O)(=O)N(Cc2ccc(Cl)cc2)C2CCCC2)cc1 [Compound 30],100 to 1000
25,O=S(=O)(c1ccc(S(=O)(=O)N(Cc2ccc(Cl)cc2)C2CCCC2)cc1)N(CCO)CC1CCCCC1 [Compound 31],30 to 100
26,O=S(=O)(c1ccc(S(=O)(=O)N(Cc2ccc(Cl)cc2)C2CCCC2)cc1)N(CCCO)CC1CCCCC1 [Compound 32],30 to 100
27,O=S(=O)(c1ccc(S(=O)(=O)N(Cc2ccc(Cl)cc2)C2CCCC2)cc1)N(CCCCO)CC1CCCCC1 [Compound 33],100 to 1000
28,"O=S(=O)(c1ccc(S(=O)(=O)N(Cc2ccc(Cl)cc2)C2CCCC2)cc1)N(Cc1ccccc1Br)CC1CCCCC1 [Compound 34, N1-(2-bromobenzyl)-N4-(4-chlorobenzyl)-N1-(cyclohexylmethyl)-N4-cyclopentylbenzene-1,4-disulfonamide]",30 to 100
